Assay results published in patent US20250127752A1, “REDUCED REBOUND EFFECTS IN SUBJECTS TREATED FOR OVERWEIGHT OR OBESITY” (Empros Pharma AB, priority 2021, published 2025).
Like-named read-outs stand apart in the source and are kept apart here.

Key:
[1] = cited from earlier work; for Additional weight loss relative to placebo: at one year, on average; for Placebo adjusted reduction of body weight: oral administration for 6 months
[2] = Pre-dose (trough) plasma level of orlistat and acarbose at steady state, week 26; type: in vivo, human; conditions: steady state week 26, patients on active treatment
[3] = cited from earlier work
[4] = oral, conventional dosage form; cited from earlier work
[5] = cited from earlier work; remark: listed apart in the source

## C[C@H]1CNCCc2ccc(Cl)cc21 [lorcaserin]
[1]
  Additional weight loss relative to placebo: ~3%
[1]; human, in vivo
  Body weight decrease more than placebo: about 3.2 kg
  Body weight decrease more than placebo, of initial body weight: about 3.2%

## CCCCCCCCCCC[C@@H](C[C@@H]1OC(=O)[C@H]1CCCCCC)OC(=O)[C@H](CC(C)C)NC=O [orlistat, (S)—((S)-1-((2S,3S)-3-Hexyl-4-oxooxetan-2-yl)tridecan-2-yl) 2-formamido-4-methylpentanoate]
[2]
  Patients in whom low plasma levels were measured: 27 of 75
[1]
  Additional weight loss relative to placebo: ~3%
  Placebo adjusted reduction of body weight: 2-3%
[1]; conventional dosage forms
  Approximate relative weight loss: 2-3%
[1]; versus placebo 6%
  Relative weight loss, best case scenario: 10%
[3]
  Solubility in water: practically insoluble in water
  Water solubility: less than 0.001 g/ml
[4]
  Fraction of the dose absorbed: < 3%
  Plasma exposure: < 5 ng/mL
[5]; clinical trials, conventional dosage form
  Patients complaining about GI side-effects (diarrhea, oily spotting, fecal urgency): ≥ 25%
[5]; similar 6-month trial
  Participants reporting faecal incontinence: 5%
[5]; trials of longer duration
  Participants reporting faecal incontinence: approximately 18%

## C[C@H]1O[C@H](O[C@H]2[C@H](O)[C@@H](O)[C@@H](O[C@H]3[C@H](O)[C@@H](O)C(O)O[C@@H]3CO)O[C@@H]2CO)[C@H](O)[C@@H](O)[C@@H]1N[C@H]1C=C(CO)[C@@H](O)[C@H](O)[C@H]1O (stereo partly drawn) [acarbose, O-4,6-Dideoxy-4-[[(1S,4R,5S,6S)-4,5,6-trihydroxy-3-(hydroxymethyl)cyclohex-2-enyl]amino]-α-D-glucopyranosyl-(1→4)-O-α-D-gluco-pyranosyl-(1→4)-D-glucopyranose]
[2]
  Patients in whom low plasma levels were measured: 3 of 75
[1]
  Placebo adjusted reduction of body weight: approx. 0.5%

## OCCN1C[C@H](O)[C@@H](O)[C@H](O)[C@H]1CO [Miglitol]
[4]
  Fraction of the dose absorbed: 100%
